Data published in patent publication US9211310B2, “Use of a Chinese medicine composition in preparing medicaments for treating secondary prevention of myocardial infarction” (TASLY PHARMACEUTICAL GROUP CO., LTD, priority 2010, dated 2015).

Tested on: patients after acute myocardial infarction
Test: Life quality, Seattle Angina Questionnaire (SAQ), same clinical trial
Assay type: in vivo, human
Details: PP
From the text: 3508 patients who were in accordance with the diagnostic standards of AMI for 28 days to 2 years and differentiated as Qi deficiency and blood stagnation syndrome by TCM were studied. 0.5 g Chinese medicine composition prepared by the method of EXAMPLE 1 (Coded as QSYQ) was administrated half an hour after meal, 3 times per day.
There were 19 questions in the Seattle angina questionnaire (SAQ), including 5 parts: physical limitation (PL), anginal stability (AS), anginal frequency (AF), treatment satisfaction (TS) and disease perception (DP). After being given necessary explanation by doctors, the questions were answered independently by patients.
They included the overall survival time, angina pectoris score, TCM symptom score and life quality score, where angina pectoris score, TCM symptom score and life quality score were evaluated at randomization, in 1st, 3rd, 6th, 9th, 12th month after treatment and 18th month after follow-up.
All evaluation results of SAQ were described during the period of observation, and Wilcoxon rank sum test was used for inter-group comparison.
The evaluation results in the SAQ were depicted in different observations, and inter-group comparison was tested by Wilcoxon Rank-sum test.

Structure (SMILES): CC(=O)Oc1ccccc1C(=O)O [Control group, aspirine]
- SAQ Question 1-1 Moderately limited, percent of patients (6 months after treatment): (0.28%)
- SAQ Question 1-1 Not limited, number of patients (6 months after treatment): 1368
- SAQ Question 1-1 Not limited, percent of patients (6 months after treatment): (94.34%)
- SAQ Question 1-1 Other reasons, number of patients (6 months after treatment): 3
- SAQ Question 1-1 Other reasons, percent of patients (6 months after treatment): (0.21%)
- SAQ Question 1-1 Severely limited, number of patients (6 months after treatment): 0
- SAQ Question 1-1 Severely limited, percent of patients (6 months after treatment): (0.00%)
- SAQ Question 1-1 Slightly limited, number of patients (6 months after treatment): 53
- SAQ Question 1-1 Slightly limited, percent of patients (6 months after treatment): (3.66%)
- SAQ Question 1-2 Mildly limited, number of patients (6 months after treatment): 19
- SAQ Question 1-2 Mildly limited, percent of patients (6 months after treatment): (1.31%)
- SAQ Question 1-2 Moderately limited, number of patients (6 months after treatment): 6
- SAQ Question 1-2 Moderately limited, percent of patients (6 months after treatment): (0.41%)
- SAQ Question 1-2 Not limited, number of patients (6 months after treatment): 1352
- SAQ Question 1-2 Not limited, percent of patients (6 months after treatment): (93.24%)
- SAQ Question 1-2 Other reasons, number of patients (6 months after treatment): 6
- SAQ Question 1-2 Other reasons, percent of patients (6 months after treatment): (0.41%)
- SAQ Question 1-2 Severely limited, number of patients (6 months after treatment): 1
- SAQ Question 1-2 Severely limited, percent of patients (6 months after treatment): (0.07%)
- SAQ Question 1-2 Slightly limited, number of patients (6 months after treatment): 66
- SAQ Question 1-2 Slightly limited, percent of patients (6 months after treatment): (4.55%)
- SAQ Question 1-6: Mildly limited, patients (%) (6 months after treatment): (16.24%)
- SAQ Question 1-6: Moderately limited, patients (%) (6 months after treatment): (12.07%)
- SAQ Question 1-6: Not limited, patients (%) (6 months after treatment): (34.35%)
- SAQ Question 1-6: Other reasons, patients (%) (6 months after treatment): (1.11%)
- SAQ Question 1-6: Severely limited, patients (%) (6 months after treatment): (3.19%)
- SAQ Question 1-6: Slightly limited, patients (%) (6 months after treatment): (33.03%)
- SAQ Question 1-7: Mildly limited, patients (%) (6 months after treatment): (21.45%)
- SAQ Question 1-7: Moderately limited, patients (%) (6 months after treatment): (12.58%)
- SAQ Question 1-7: Not limited, patients (%) (6 months after treatment): (14.47%)
- SAQ Question 1-7: Other reasons, patients (%) (6 months after treatment): (3.70%)
- SAQ Question 1-7: Severely limited, patients (%) (6 months after treatment): (14.88%)
- SAQ Question 1-7: Slightly limited, patients (%) (6 months after treatment): (32.91%)
- SAQ Question 1-8: Mildly limited, patients (%) (6 months after treatment): (25.91%)
- SAQ Question 1-8: Moderately limited, patients (%) (6 months after treatment): (16.01%)
- SAQ Question 1-8: Not limited, patients (%) (6 months after treatment): (10.81%)
- SAQ Question 1-8: Other reasons, patients (%) (6 months after treatment): (3.79%)
- SAQ Question 1-8: Severely limited, patients (%) (6 months after treatment): (18.96%)
- SAQ Question 1-8: Slightly limited, patients (%) (6 months after treatment): (24.51%)
- 8th question: Mostly satisfied, patients (%) (6 months after treatment, second line of the scale): (1.58%)
- 8th question: Dissatisfied, patients (%) (9 months after treatment): (0.28%)
- 8th question: Highly satisfied, patients (%) (9 months after treatment): (23.18%)
- 8th question: Mostly dissatisfied, patients (%) (9 months after treatment): (1.18%)
- 8th question: Mostly satisfied, patients (%) (9 months after treatment): (58.78%)
- 8th question: Partly satisfied, patients (%) (9 months after treatment): (16.59%)
- 9th question: Few, patients (%) (9 months after treatment): (38.61%)
- 9th question: Mild, patients (%) (9 months after treatment): (32.78%)
- 9th question: Moderate, patients (%) (9 months after treatment): (7.01%)
- 9th question: Severe, patients (%) (9 months after treatment): (0.35%)
- 9th question: Uneffective, patients (%) (9 months after treatment): (21.25%)
- 10th question: Dissatisfied, patients (%) (9 months after treatment): (18.81%)
- 10th question: Highly satisfied, patients (%) (9 months after treatment): (6.18%)
- 10th question: Mostly dissatisfied, patients (%) (9 months after treatment): (19.99%)
- 10th question: Mostly satisfied, patients (%) (9 months after treatment): (29.22%)
- 10th question: Partly satisfied, patients (%) (9 months after treatment): (25.82%)
- 11th question: Continuously worried, patients (%) (9 months after treatment): (2.43%)
- 11th question: No worried, patients (%) (9 months after treatment): (6.11%)
- 11th question: Occasionally worried, patients (%) (9 months after treatment): (42.40%)
- 11th question: Often worried, patients (%) (9 months after treatment): (11.73%)
- 11th question: Seldom worried, patients (%) (9 months after treatment): (37.34%)
- SAQ 4th question, 1-2 times per week: % of patients (9 months after treatment): (15.99%)
- SAQ 4th question, 1-2 times per week: number of patients (9 months after treatment): 230
- SAQ 4th question, 1-3 times per week: % of patients (9 months after treatment): (3.41%)
- SAQ 4th question, 1-3 times per week: number of patients (9 months after treatment): 49
- SAQ 4th question, <1 time per week: % of patients (9 months after treatment): (14.95%)
- SAQ 4th question, <1 time per week: number of patients (9 months after treatment): 215
- SAQ 4th question, Not used: % of patients (9 months after treatment): (61.54%)
- SAQ 4th question, Not used: number of patients (9 months after treatment): 885
- SAQ 4th question, ≧3 times per week: % of patients (9 months after treatment): (4.03%)
- SAQ 4th question, ≧3 times per week: number of patients (9 months after treatment): 58
- SAQ 4th question, ≧4 times per day: % of patients (9 months after treatment): (0.07%)
- SAQ 4th question, ≧4 times per day: number of patients (9 months after treatment): 1
- SAQ 5th question, 1-2 times per week: % of patients (9 months after treatment): (30.04%)
- SAQ 5th question, 1-2 times per week: number of patients (9 months after treatment): 432
- SAQ 5th question, 1-3 times per day: % of patients (9 months after treatment): (6.68%)
- SAQ 5th question, 1-3 times per day: number of patients (9 months after treatment): 96
- SAQ 5th question, <1 time per week: % of patients (9 months after treatment): (28.65%)
